Structures are written as SMILES.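 A five-concentration, 48-hour dose response in 96-well plates underlies each endpoint, interpolated linearly between surrounding concentrations. GI50 = concentration required for 50% inhibition of growth. TGI denotes the concentration required for complete inhibition of growth.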

Some test systems named below: A549 NSCLC; HCC-2998 colon; IGROV1 ovarian; KM12 colon; MOLT-4 leukemia; OVCAR-5 ovarian; PC-3 prostate; SK-MEL-5 melanoma; SW-620 colon; M14 melanoma.
Assay in all cases: NCI tumour cell line growth inhibition, 48 h

As to `NC(=O)C(N)Cc1ccc(O)cn1` (stereo not given), the TGI in the assay on A549 NSCLC, in the assay with HCC-2998 colon, in the assay on IGROV1 ovarian, with KM12 colon, with MOLT-4 leukemia and with OVCAR-5 ovarian was above 100 µM in each case. Further, the TGI with PC-3 prostate, in the assay with SK-MEL-5 melanoma and with SW-620 colon was above 100 µM throughout.
Consider `C[N+](C)([O-])CCC=C1c2ccccc2CCc2ccccc21`, for which the TGI with A549 NSCLC is above 100 µM; with IGROV1 ovarian, 33.1 µM; in the assay with KM12 colon it was 36.3 µM; in the assay with M14 melanoma it was above 100 µM; in the assay with MOLT-4 leukemia it was 40.7 µM; in the assay on OVCAR-5 ovarian, above 100 µM. For the same compound, the results for the TGI in the assay on PC-3 prostate, in the assay on SK-MEL-5 melanoma and in the assay on SW-620 colon were 86.3 µM, 34.3 µM and 62.3 µM, respectively.
Turning to `CS(=O)(=O)Nc1ccc(N2Cc3cnc4ccc5[nH]ccc2c5c34)cc1`, the TGI is above 100 µM in the assay with A549 NSCLC; 79.9 µM in the assay on IGROV1 ovarian; above 100 µM in the assay with KM12 colon; 32.2 µM with M14 melanoma; 8.94 µM with MOLT-4 leukemia; 84.5 µM in the assay with OVCAR-5 ovarian. Moreover, the TGI in the assay on PC-3 prostate was 42 µM; in the assay with SK-MEL-5 melanoma, 29 µM; in the assay on SW-620 colon, above 100 µM.
Turning to `CC(=O)NC1C(OCc2ccccc2)OC(CO)C(O)C1OC(C)C(=O)NC(C)C(=O)NC(CCC(=O)NCCCNc1c2ccccc2nc2cccc([N+](=O)[O-])c12)C(N)=O` (stereo not given), the TGI with A549 NSCLC was 11.6 µM; in the assay with HCC-2998 colon, 2.52 µM; with IGROV1 ovarian, 72.9 µM; in the assay on KM12 colon it was 23.5 µM; in the assay on M14 melanoma, 3.97 µM; in the assay with MOLT-4 leukemia, above 100 µM. For the same compound, the values for the TGI with OVCAR-5 ovarian, in the assay on SK-MEL-5 melanoma and in the assay on SW-620 colon were 8.02 µM, 2.47 µM and 11.6 µM, respectively.
Consider `COc1ccc(C2CC(c3cccc(Nc4ccncc4)c3)=NN2c2cc(Cl)cc(Cl)c2)cc1` (stereo not given), for which the GI50 in the assay on HCC-2998 colon was 1.47 µM; in the assay with IGROV1 ovarian it was 1.69 µM; with KM12 colon, 1.77 µM; with MOLT-4 leukemia, 2.04 µM; in the assay on OVCAR-5 ovarian it was 2.23 µM; in the assay on PC-3 prostate, 1.54 µM. In addition, the GI50 with SK-MEL-5 melanoma is 1.81 µM; in the assay with SW-620 colon, 1.71 µM. The TGI in the assay with HCC-2998 colon was 2.85 µM; with IGROV1 ovarian it was 3.35 µM; in the assay with KM12 colon, 3.3 µM; with MOLT-4 leukemia, 4.97 µM; with OVCAR-5 ovarian, 5.19 µM; in the assay with PC-3 prostate, 3.16 µM. Besides, the TGI in the assay on SK-MEL-5 melanoma was found to be 3.28 µM; in the assay with SW-620 colon, 3.26 µM.
In the case of `COc1cc(C[S+]2CCCC2)c(SC)cc1C[S+]1CCCC1`, the TGI with A549 NSCLC, in the assay on HCC-2998 colon, in the assay on IGROV1 ovarian, in the assay on KM12 colon, with M14 melanoma and with MOLT-4 leukemia was above 100 µM throughout. Moreover, the TGI with OVCAR-5 ovarian, in the assay on SK-MEL-5 melanoma and in the assay with SW-620 colon was above 100 µM throughout.
For `O=[N+]([O-])c1ccc(/C=N/n2c(CO)nc3ccccc32)o1`, the TGI was determined as 36.5 µM with A549 NSCLC; 6.09 µM in the assay with IGROV1 ovarian; 15.4 µM in the assay with KM12 colon; 16.7 µM with M14 melanoma; 7.12 µM in the assay with MOLT-4 leukemia; 24.7 µM in the assay with OVCAR-5 ovarian. In addition, the TGI in the assay with PC-3 prostate was 26.1 µM; with SK-MEL-5 melanoma, 6.78 µM; in the assay on SW-620 colon, 29.1 µM.
As to `O=C(c1ccc(O)cc1)C1c2c3c(cc(O)c2C(c2ccc(O)cc2)C1c1cc(O)cc(O)c1)OC(c1ccc(O)cc1)C3c1cc2c(cc1O)OC(c1ccc(O)cc1)C2c1cc(O)cc(O)c1` (stereo not given), the TGI in the assay on A549 NSCLC, in the assay with HCC-2998 colon, with KM12 colon, in the assay on M14 melanoma, in the assay with MOLT-4 leukemia and with OVCAR-5 ovarian was above 12.5 µM throughout. The TGI in the assay on SK-MEL-5 melanoma and in the assay on SW-620 colon was above 12.5 µM throughout.
Turning to `Cc1ccc(/C=N/n2c(=O)[nH]c3ccccc3c2=O)cc1`, the TGI in the assay with A549 NSCLC, in the assay with IGROV1 ovarian, with KM12 colon, in the assay on M14 melanoma, in the assay with MOLT-4 leukemia and with OVCAR-5 ovarian was above 100 µM each time. Besides, the TGI in the assay with PC-3 prostate, with SK-MEL-5 melanoma and in the assay on SW-620 colon was above 100 µM each time.
As to `c1ccc2sc(C3(N4CCCC4)CCCCCC3)cc2c1`, the TGI in the assay with A549 NSCLC was 43 µM; in the assay with HCC-2998 colon, 27.1 µM; in the assay on IGROV1 ovarian it was 46.2 µM; in the assay on KM12 colon, 26.3 µM; in the assay with M14 melanoma it was 31 µM; in the assay with MOLT-4 leukemia, 29.3 µM. Also, the TGI came to 25.2 µM in the assay on OVCAR-5 ovarian, 33.9 µM with SK-MEL-5 melanoma and 34.4 µM with SW-620 colon.
Take `S=C(NCc1ccccc1)c1nc[nH]c1C(=S)NCc1ccccc1`: the TGI with A549 NSCLC is 15.1 µM; with HCC-2998 colon it was 23.6 µM; with IGROV1 ovarian, 19.8 µM; in the assay with KM12 colon, 20 µM; with M14 melanoma, 20.7 µM; with MOLT-4 leukemia, 25.4 µM. In addition, the values for the TGI in the assay on OVCAR-5 ovarian, with PC-3 prostate and in the assay on SW-620 colon were 21.7 µM, 20.4 µM and 20.8 µM, respectively.
`C=CCNC1=C2C[C@@H](C)C[C@@H](OC)[C@H](OC(=O)CCCCN)[C@H](C)/C=C(\C)[C@@H](OC(N)=O)[C@H](OC)/C=C\C=C(/C)C(=O)NC(=CC1=O)C2=O`: the TGI is 25.2 µM with A549 NSCLC; 13.6 µM in the assay on HCC-2998 colon; 28.6 µM in the assay with IGROV1 ovarian; 18 µM with KM12 colon; 27 µM in the assay on M14 melanoma; 52.9 µM in the assay with MOLT-4 leukemia. The TGI in the assay on OVCAR-5 ovarian came to 34 µM; in the assay with SK-MEL-5 melanoma, 25.5 µM; in the assay on SW-620 colon it was 55.1 µM.
As for `COc1ccc(C2S/C(=C\c3ccccc3O)C(=O)N2NC(=O)Cc2ccccc2)cc1` (stereo not given), the TGI in the assay on A549 NSCLC, in the assay on IGROV1 ovarian, with KM12 colon, in the assay on M14 melanoma, in the assay with MOLT-4 leukemia and with OVCAR-5 ovarian was above 100 µM in each case. In addition, the TGI in the assay with SK-MEL-5 melanoma and in the assay with SW-620 colon was above 100 µM in each case.
As to `S=C(c1c[nH]c2ccccc12)N1CCOCC1`, the TGI in the assay on IGROV1 ovarian, in the assay with KM12 colon, in the assay with M14 melanoma, in the assay on MOLT-4 leukemia, in the assay on OVCAR-5 ovarian and in the assay with PC-3 prostate was above 100 µM in each case. Moreover, the TGI with SK-MEL-5 melanoma and in the assay with SW-620 colon was above 100 µM throughout.
Take `C[C@]12C=CC(=O)C=C1CC[C@H]1[C@@H]3C[C@@H](O)[C@](O)(C(=O)CO)[C@@]3(C)C[C@H](O)[C@@]12F`: the TGI with A549 NSCLC, in the assay on HCC-2998 colon, with IGROV1 ovarian, in the assay with KM12 colon, with M14 melanoma and with MOLT-4 leukemia was above 100 µM throughout. For the same compound, the TGI in the assay with OVCAR-5 ovarian, in the assay with SK-MEL-5 melanoma and in the assay with SW-620 colon was above 100 µM each time.
With `COc1ccc(C(=O)Sc2c(-c3ccccc3)c(=O)n(-c3ccccc3)c(=S)n2-c2ccccc2)cc1`, the TGI was above 100 µM with A549 NSCLC; above 100 µM with HCC-2998 colon; 26.4 µM in the assay on IGROV1 ovarian; above 100 µM in the assay on KM12 colon; above 100 µM in the assay on M14 melanoma; 56.1 µM with MOLT-4 leukemia. Moreover, the TGI with OVCAR-5 ovarian, in the assay on PC-3 prostate and in the assay with SW-620 colon was above 100 µM in each case.
On to `CC(=O)OCc1cc(CCC(=O)NCCNc2c3ccccc3nc3ccccc23)cc(COC(C)=O)c1O[Si](C)(C)C(C)(C)C`, for which the TGI with A549 NSCLC is 24.4 µM; with IGROV1 ovarian, 27.6 µM; with KM12 colon it was 15.4 µM; with M14 melanoma, 23.2 µM; in the assay with MOLT-4 leukemia, 5.25 µM; with OVCAR-5 ovarian it was 29.1 µM. Further, the values for the TGI in the assay with PC-3 prostate and in the assay on SW-620 colon were 29.3 µM and 30.1 µM, respectively.
As to `O=C1OC[C@@H]2Cc3cc4c(cc3[C@H](c3ccc5c(c3)OCO5)[C@@H]12)OCO4`, the TGI in the assay with A549 NSCLC, in the assay with HCC-2998 colon, in the assay with KM12 colon, in the assay on M14 melanoma, in the assay on MOLT-4 leukemia and in the assay with OVCAR-5 ovarian was above 25 µM each time. In addition, the TGI in the assay on SK-MEL-5 melanoma was above 25 µM.
Consider `O=[N+]([O-])c1ccc(C=C2C(Cl)=C(Cl)C(Cl)=C2Cl)cc1`, for which the GI50 was 2 µM in the assay on IGROV1 ovarian; 3.07 µM in the assay on MOLT-4 leukemia; 3.3 µM with OVCAR-5 ovarian; 2.71 µM with PC-3 prostate; 21.8 µM with SK-MEL-5 melanoma. For the same compound, the TGI in the assay on IGROV1 ovarian is 4.41 µM; in the assay with MOLT-4 leukemia, above 100 µM; in the assay with OVCAR-5 ovarian, above 100 µM; with PC-3 prostate it was 8.35 µM; in the assay with SK-MEL-5 melanoma, above 100 µM.
Regarding `CNC(=S)N(C)C(=S)Nn1c(=O)c(C)nn(C)c1=S`, the TGI in the assay with A549 NSCLC, with IGROV1 ovarian, with KM12 colon, in the assay on M14 melanoma, in the assay with MOLT-4 leukemia and with OVCAR-5 ovarian was above 100 µM in each case. Also, the TGI in the assay with SK-MEL-5 melanoma and in the assay with SW-620 colon was above 100 µM each time.
In the case of `COC(=O)Cc1cc(O)c(C/C=C(\C)CC/C=C(\C)C(O)C(=O)C=C(C)C)cc1O` (stereo not given), the TGI was above 100 µM in the assay with A549 NSCLC; 63 µM in the assay with IGROV1 ovarian; 43.2 µM in the assay with KM12 colon; 64.8 µM with M14 melanoma; 36.9 µM in the assay on MOLT-4 leukemia; above 100 µM with OVCAR-5 ovarian. Also, the TGI was found to be 87.7 µM in the assay with PC-3 prostate, 40.4 µM in the assay with SK-MEL-5 melanoma and 87.8 µM in the assay with SW-620 colon.

For the origin of these results see PubChem BioAssay (NCI).
